Assay [1] has as its target T1, b-Raf (Homo sapiens, UniProt P15056).
T1 construct: Full-length wild type b-Raf is expressed in recombinant form and purified from bacterial or insect cells; made in house; host or cells: bacterial or insect cells
Put plainly: Raf biochemical assay (in vitro kinase assay, 32-P transfer from ATP to Mek1). The following applies: full-length wild type b-Raf, Mek1 substrate; for Ki: 25 μM ATP; for inhibition at 1 µM: @ 1 μM compound, read-out: b-Raf % inhib @ 1 μM. The method, then:
Compounds of the present invention were evaluated for potency against b-Raf using an in vitro kinase assay. Raf kinase activity is measured in vitro by determining transfer of radiolabeled 32-P phosphate from ATP to the specific Raf substrate Mek1. Full-length wild type b-Raf is expressed in recombinant form and purified from bacterial or insect cells. Recombinant Mek1 is purified from E. coli bacterial cells. In one assay format (designated G1), the full-length wild type Mek1 is used as the b-Raf substrate. In a second assay format (designated G2), the full-length K97R Mek1 mutant is used as the b-Raf substrate.
In vitro kinase assays are performed in solution containing the following; 50 mM Hepes (pH 7.4), 5 nM b-Raf, 0.8 μM Mek1, 10 mM MgCl2, 25 μM ATP, 0.002% (v/v) Tween-20, 5 μg/mL leupeptin, 1.2 mM DTT, 2% (v/v) DMSO, 0.2-1.0 μCi [γ-^32P]ATP per well.
The assays are performed in wells of a 96 well polypropylene round bottom plate, each well containing 43.5 μL assay mix and 1.5 μL inhibitor compound or DMSO vehicle. 15 μL of b-Raf mix is added and the plate is shaken on a plate shaker and preincubated for 10 minutes at ambient temperature. The reaction is started by addition of 15 μL ATP mix and shaking. The reaction is terminated after 40 minutes by addition of 25 μL 0.5 M EDTA (pH 7.4).
60 μL of the stopped reaction is transferred to a well of a 96-well nylon 66 Biodyne A membrane Silent Screen filter plate (Nalge/Nunc: 256081). The wells are filtered and washed five times with 0.85% phosphoric acid. The filter is placed in a tray with about 50 mL 0.85% phosphoric acid and gently rotated for 10 minutes on an orbital shaker. The procedure is repeated once with fresh 0.85% phosphoric acid. Five samples of 0.5 μL of ATP mix are also spotted onto filter paper for calculation of specific activity. The filters are air dried for one hour and sandwiched between cellophane wrap on an Amersham Biosciences Storage Phosphor Screen and developed at least over night. The image is read using a Molecular Dynamics Storm 840 phosphoimager. Volumes of spots are calculated using ImageQuant5.1.
Raf kinase activity is calculated from the specific activity of [32-P] ATP, 32-P incorporation into Mek1, and the concentration of b-Raf.

Assay [2] deals with T2, b-Raf (Homo sapiens, UniProt P15056, V600E).
T2 construct: endogenous in cells; host or cells: A2058 human melanoma cells
The assay can be described thus: Raf cellular assay (phospho-Mek1/2 ELISA in A2058 cells). The class given is cell-based. Particulars: Table 2; human melanoma A2058 cells (b-Raf mutation), Mek1/2 Ser217/221 phosphorylation, 1 hour incubation; read-out: pMEK IC50. The method, boiled down: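 A2058 melanoma cells (B-Raf mutant), seeded overnight in 10% FBS DMEM, were exposed to compounds (11-point 1:3 series, duplicate) for 1 h at 37 °C. Lysates were captured on anti-Mek1-coated plates and Mek1/2 Ser217/221 phosphorylation was read by anti-phospho-Mek1/2 ELISA, HRP/TMB, 450 nm.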
(In general: ELISA stands for enzyme-linked immunosorbent assay.)

T1 sequence (P15056 whole entry): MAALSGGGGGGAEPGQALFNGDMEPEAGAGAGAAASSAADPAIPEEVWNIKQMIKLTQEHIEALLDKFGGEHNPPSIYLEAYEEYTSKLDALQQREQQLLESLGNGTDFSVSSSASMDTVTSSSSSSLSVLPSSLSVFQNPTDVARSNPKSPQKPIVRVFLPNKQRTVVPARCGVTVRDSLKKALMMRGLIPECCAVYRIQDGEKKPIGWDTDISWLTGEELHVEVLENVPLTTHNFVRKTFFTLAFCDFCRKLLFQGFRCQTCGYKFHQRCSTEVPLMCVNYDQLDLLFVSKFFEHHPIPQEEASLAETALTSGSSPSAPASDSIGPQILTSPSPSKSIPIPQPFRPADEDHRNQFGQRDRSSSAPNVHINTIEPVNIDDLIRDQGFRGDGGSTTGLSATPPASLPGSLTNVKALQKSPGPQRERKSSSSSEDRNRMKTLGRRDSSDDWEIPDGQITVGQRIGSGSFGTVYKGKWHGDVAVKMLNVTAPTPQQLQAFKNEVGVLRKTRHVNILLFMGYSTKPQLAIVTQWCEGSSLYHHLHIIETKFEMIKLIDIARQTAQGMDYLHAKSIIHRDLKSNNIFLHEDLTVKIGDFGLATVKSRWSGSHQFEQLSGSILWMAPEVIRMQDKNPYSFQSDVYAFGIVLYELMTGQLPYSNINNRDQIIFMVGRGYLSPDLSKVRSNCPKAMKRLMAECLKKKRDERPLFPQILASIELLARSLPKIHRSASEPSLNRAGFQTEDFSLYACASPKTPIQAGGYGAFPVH
T2 sequence (P15056 whole entry V600E): as the sequence (P15056 whole entry) above, with V600E counted along it

`C[C@H](O)CNc1nccc(-c2cn(CC3(C)COC3)nc2-c2cnc3[nH]cc(Cl)c3c2)n1` [Example E-4, (2S)-1-(4-(3-(3-chloro-1H-pyrrolo[2,3-b]pyridin-5-yl)-1-((3-methyloxetan-3-yl)methyl)-1H-pyrazol-4-yl)pyrimidin-2-ylamino)propan-2-ol]: the inhibitory constant (Ki) (as a rule, the equilibrium dissociation constant of an inhibitor or competing ligand from its target) in assay [1] was 1.9 nM. For the same molecule, the 50% inhibitory concentration (IC50) (in general, the concentration that gives 50% inhibition) in assay [2] came out at 188 nM.

In assay [1], `Cc1c[nH]c2ncc(-c3nn(C(C)C)cc3-c3ccnc(NC[C@H](C)O)n3)cc12` [Example B-5, (2S)-1-(4-(1-isopropyl-3-(3-methyl-1H-pyrrolo[2,3-b]pyridin-5-yl)-1H-pyrazol-4-yl)pyrimidin-2-ylamino)propan-2-ol] displayed an inhibition constant (Ki) of 0.2 nM. For the same molecule, the half-inhibitory concentration (IC50) in assay [2] amounted to 7 nM.

Consider `Cc1[nH]c2ncc(-c3nn(C(C)C)cc3-c3ccnc(NC[C@H](C)O)n3)cc2c1C` [Example B-6, (2S)-1-(4-(3-(2,3-dimethyl-1H-pyrrolo[2,3-b]pyridin-5-yl)-1-isopropyl-1H-pyrazol-4-yl)pyrimidin-2-ylamino)propan-2-ol], for which the inhibitory constant (Ki) in assay [1] is 1.5 nM. Moreover, the IC50 in assay [2] came out at 44 nM.

With `C[C@H](O)CNc1nccc(-c2cn(CC(F)F)nc2-c2cnc3[nH]cc(Cl)c3c2)n1` [Example E-2, (2S)-1-(4-(3-(3-chloro-1H-pyrrolo[2,3-b]pyridin-5-yl)-1-(2,2-difluoroethyl)-1H-pyrazol-4-yl)pyrimidin-2-ylamino)propan-2-ol], in assay [1], the inhibition at 1 µM came to 100% and the inhibition constant (Ki) is below 0.1 nM. The IC50 in assay [2] was 15 nM.

In the case of `CNc1ccc(-c2nn(C(C)C)cc2-c2ccnc(NC[C@H](C)O)n2)cn1` [Example B-2, (2S)-1-(4-(1-isopropyl-3-(6-(methylamino)pyridin-3-yl)-1H-pyrazol-4-yl)pyrimidin-2-ylamino)propan-2-ol], in assay [1], the inhibition at 1 µM is 97% and the Ki was 12 nM. Besides, in assay [2], the IC50 is 8670 nM.

In assay [1], `Cc1cc2cc(-c3nn(C(C)C)cc3-c3ccnc(NC[C@H](C)O)n3)cnc2[nH]1` [Example B-7, (2S)-1-(4-(1-isopropyl-3-(2-methyl-1H-pyrrolo[2,3-b]pyridin-5-yl)-1H-pyrazol-4-yl)pyrimidin-2-ylamino)propan-2-ol] showed a Ki of 10.3 nM. Besides, the half-inhibitory concentration (IC50) in assay [2] stood at 4010 nM.

Take `Cc1nc2ncc(-c3nn(C(C)C)cc3-c3ccnc(NC[C@H](C)O)n3)cn2c1C` [Example B-9, (2S)-1-(4-(3-(2,3-dimethylimidazo[1,2-a]pyrimidin-6-yl)-1-isopropyl-1H-pyrazol-4-yl)pyrimidin-2-ylamino)propan-2-ol]: the Ki in assay [1] amounted to 2 nM. Moreover, the IC50 in assay [2] amounted to 9260 nM.

As to `CC(C)n1cc(-c2ccnc(NC[C@H](C)O)n2)c(-c2cnc3[nH]ncc3c2)n1` [Example D-1, (2S)-1-(4-(1-isopropyl-3-(1H-pyrazolo[3,4-b]pyridin-5-yl)-1H-pyrazol-4-yl)pyrimidin-2-ylamino)propan-2-ol], in assay [1], the affinity corresponds to a Ki of 3.3 nM. The IC50 in assay [2] stood at 1980 nM.

Turning to `CC(C)n1cc(-c2ccnc(NCCF)n2)c(-c2cnc3[nH]ccc3c2)n1` [Example D-5, N-(2-fluoroethyl)-4-[1-isopropyl-3-(1H-pyrrolo[2,3-b]pyridin-5-yl)-1H-pyrazol-4-yl]pyrimidin-2-amine], in assay [1], the inhibition at 1 µM was 100% and the Ki came to 0.5 nM. Also, the IC50 in assay [2] was determined as 182 nM.

Regarding `COCCNc1nccc(-c2cn(C(C)C)nc2-c2cnc3[nH]ccc3c2)n1` [Example D-13, 4-[1-isopropyl-3-(1H-pyrrolo[2,3-b]pyridin-5-yl)-1H-pyrazol-4-yl]-N-(2-methoxyethyl)-pyrimidin-2-amine], in assay [1], the inhibition at 1 µM amounted to 100% and the affinity, expressed as Ki, was 0.7 nM. Also, the IC50 in assay [2] was 2990 nM.

Turning to `CCN1CC(CNc2nccc(-c3cn(C(C)C)nc3-c3cnc4[nH]ccc4c3)n2)CC1=O` [Example D-14, 1-ethyl-4-[({4-[1-isopropyl-3-(1H-pyrrolo[2,3-b]pyridin-5-yl)-1H-pyrazol-4-yl]pyrimidin-2-yl}amino)methyl]-pyrrolidin-2-one], in assay [1], the inhibition at 1 µM came out at 99% and the inhibition constant Ki came to 4.8 nM. For the same molecule, the IC50 in assay [2] worked out at 3140 nM.

For `CC(CO)Nc1nccc(-c2cn(C(C)C)nc2-c2cnc3[nH]ccc3c2)n1` (stereo in doubt) [Example D-9, (2R)-2-({4-[1-isopropyl-3-(1H-pyrrolo[2,3-b]pyridin-5-yl)-1H-pyrazol-4-yl]pyrimidin-2-yl}amino)propan-1-ol], in assay [1], the inhibition at 1 µM was 100% and the affinity corresponds to a Ki of 1.6 nM. The half-inhibitory concentration (IC50) in assay [2] came out at 918 nM.

As for `CNc1ncc(-c2nn(C(C)C)cc2-c2ccnc(NC[C@H](C)O)n2)cc1C` [Example B-4, (2S)-1-(4-(1-isopropyl-3-(5-methyl-6-(methylamino)pyridin-3-yl)-1H-pyrazol-4-yl)pyrimidin-2-ylamino)propan-2-ol], in assay [1], the inhibition at 1 µM is 74% and the affinity corresponds to a Ki of 272 nM. For the same molecule, the IC50 in assay [2] turned out to be 3370 nM.

On to `CC(C)n1cc(-c2ccnc(NC[C@H](C)O)n2)c(-c2cnc3ccn(C)c3n2)n1` [Example B-10], for which the affinity in assay [1], expressed as Ki, was 5 nM. Moreover, in assay [2], the half-inhibitory concentration (IC50) was 5960 nM.

On to `CC(C)n1cc(-c2ccnc(NCCn3ccccc3=O)n2)c(-c2cnc3[nH]ccc3c2)n1` [Example D-8, 1-[2-({4-[1-isopropyl-3-(1H-pyrrolo[2,3-b]pyridin-5-yl)-1H-pyrazol-4-yl]pyrimidin-2-yl}amino)ethyl]pyridin-2(1H)-one], for which, in assay [1], the inhibition at 1 µM is 100% and the inhibition constant Ki came out at 0.7 nM. For the same molecule, the IC50 in assay [2] turned out to be 542 nM.

`Cc1nc(CNc2nccc(-c3cn(C(C)C)nc3-c3cnc4[nH]ccc4c3)n2)c(C)o1` [Example D-11, N-[(2,5-dimethyl-1,3-oxazol-4-yl)methyl]-4-[1-isopropyl-3-(1H-pyrrolo[2,3-b]pyridin-5-yl)-1H-pyrazol-4-yl]pyrimidin-2-amine]: in assay [1], the inhibition at 1 µM was 100% and the inhibition constant (Ki) was 0.8 nM. In addition, the half-maximal inhibitory concentration (IC50) in assay [2] came to 1320 nM.

`CC(C)n1cc(-c2ccnc(NCCc3cn[nH]c3)n2)c(-c2cnc3[nH]ccc3c2)n1` [Example D-7, 4-[1-isopropyl-3-(1H-pyrrolo[2,3-b]pyridin-5-yl)-1H-pyrazol-4-yl]-N-[2-(1H-pyrazol-4-yl)ethyl]pyrimidin-2-amine]: in assay [1], the inhibition at 1 µM came to 99% and affinity was put at a Ki of 0.5 nM. Further, in assay [2], the half-maximal inhibitory concentration (IC50) came out at 386 nM.

Regarding `CC(C)n1cc(-c2ccnc(NC[C@H](C)O)n2)c(-c2cnc3[nH]ccc3c2)n1` [Example B-1, (2S)-1-(4-(1-isopropyl-3-(1H-pyrrolo[2,3-b]pyridin-5-yl)-1H-pyrazol-4-yl)pyrimidin-2-ylamino)propan-2-ol], in assay [1], the inhibition at 1 µM came to 102% and the affinity corresponds to a Ki of 0.5 nM. Moreover, the IC50 in assay [2] turned out to be 154 nM.

In assay [1], `C[C@H](O)CNc1nccc(-c2cn(C)nc2-c2cnc3[nH]cc(Cl)c3c2)n1` [Example E-1, (2S)-1-(4-(3-(3-chloro-1H-pyrrolo[2,3-b]pyridin-5-yl)-1-methyl-1H-pyrazol-4-yl)pyrimidin-2-ylamino)propan-2-ol] came in with a Ki of 1.5 nM. The half-inhibitory concentration (IC50) in assay [2] is 223 nM.

Consider `C[C@H](O)CNc1nccc(-c2cn(CC3(C)COC3)nc2-c2cnc3[nH]ccc3c2)n1` [Example B-15, (2S)-1-(4-(1-((3-methyloxetan-3-yl)methyl)-3-(1H-pyrrolo[2,3-b]pyridin-5-yl)-1H-pyrazol-4-yl)pyrimidin-2-ylamino)propan-2-ol], for which, in assay [1], the inhibition constant Ki worked out at 6.2 nM. The IC50 in assay [2] stood at 3250 nM.

Turning to `Cc1n[nH]c2ncc(-c3nn(C(C)C)cc3-c3ccnc(NC[C@H](C)O)n3)cc12` [Example D-2, (2S)-1-(4-(1-isopropyl-3-(3-methyl-1H-pyrazolo[3,4-b]pyridin-5-yl)-1H-pyrazol-4-yl)pyrimidin-2-ylamino)propan-2-ol], the Ki in assay [1] was 0.3 nM. For the same molecule, the IC50 in assay [2] was 109 nM.

The values are drawn from patent publication US7772246B2 (Pfizer Inc., priority 2007, dated 2010).
